# In patent US8178577B2, “Tricyclic derivatives as potent and selective histone deacetylase inhibitors” (Shenzhen Chipscreen Biosciences Ltd., priority 2008, dated 2012):
# What was measured:
# [1] = tested on: total HDAC enzyme; assay: In vitro inhibition of total HDAC enzyme activity (BIOMOL HDAC Fluorimetric Assay/Drug Discovery Kit, HeLa extract); type: biochemical
# Method: Measurement of In Vitro Inhibition of Total HDAC Enzyme Activity:
# The in vitro inhibition of total HDAC enzyme was determined by HDAC Fluorimetric Assay/Drug Discovery Kit (BIOMOL) according to manufacture's instruction. • 1. Add Assay buffer, diluted trichostatin A or test inhibitor to appropriate wells of the microtiter plate. Following table lists examples of various assay types and the additions required for each test.
# • 2. Add diluted HeLa extract or other HDAC sample to all wells except those that are to be “No Enzyme Controls” (Blank). • 3. Allow diluted Fluor de LYS™ Substrate and the samples in the microtiter plate to equilibrate to assay temperature (25° C.). • 4. Initiate HDAC reactions by adding diluted substrate (25 μl) to each well and mixing thoroughly. • 5. Allow HDAC reactions to proceed for desired length of time and then stop them by addition of Fluor de Lys™ Developer (50 μl). Incubate plate at room temperature (25° C.) for 10-15 min. • 6. Read samples in a microtiter-plate reading fluorimeter capable of excitation at a wavelength in the range 350-380 nm and detection of emitted light in the range 440-460 nm. Measurement of In Vivo Inhibition of HDAC Subtype Activity: […]
# [2] = tested on: HDAC Class I; assay: P21 reporter gene assay in HeLa cells; type: cell-based; conditions: relative to SAHA, 24 hours
# Method: (§1) HDAC subtype selectivity inhibition assay of tested compounds was carried out by several reporter gene assays experiments. Briefly, HeLa cells were seeded in 96-well plates the day before transfection to give a confluence of 50-80%. Cells were transfected with one of reporter gene plasmids containing a promoter sequences or response elements upstream of a luciferase gene construct using FuGene6 transfection reagent according to the manufacturer's instructions (Roche). The promoter or response elements including p21-promoter, gdf11-promoter, serum response element (SRE), MEF-binding element were fused upstream to the luciferase gene reporter construct. For normalizing the transfection efficiency, a GFP expression plasmid was cotransfected. Cells were allowed to express protein for 24 hours followed by addition of individual compounds or the vehicle (DMSO). 24 hours later the cells were harvested, and the luciferase assays were performed using the luciferase assay kit according to the manufacturer's instructions (Promega). To normalize the data from the luciferase assays, β-galactosidase activity from transfected cells was measured using a kit (Promega) as instructed by the manufacturer.
# [3] = molecular target: T1, HDAC3 (Homo sapiens, UniProt O15379); assay: gdf11 reporter gene assay in HeLa cells; type: cell-based; conditions: HeLa, 24 h, read-out: % of SAHA Response for HDAC3 at 10 μM (gdf11 reporter gene)
# T1 construct: endogenous in cells; host or cells: HeLa
# Method: as §1
# [4] = tested on: HDAC4/5; assay: MEF2 reporter gene assay in HeLa cells; type: cell-based; conditions: relative to SAHA, 24 hours
# Method: as §1
# [5] = molecular target: T2, (Homo sapiens, UniProt Q9UBN7); assay: Cytoblot assay of acetylation of α-tubulin in A549 cells; type: cell-based; conditions: 24 hours
# T2 construct: endogenous in cells; host or cells: A549
# T2 sequence (Q9UBN7 1-1215): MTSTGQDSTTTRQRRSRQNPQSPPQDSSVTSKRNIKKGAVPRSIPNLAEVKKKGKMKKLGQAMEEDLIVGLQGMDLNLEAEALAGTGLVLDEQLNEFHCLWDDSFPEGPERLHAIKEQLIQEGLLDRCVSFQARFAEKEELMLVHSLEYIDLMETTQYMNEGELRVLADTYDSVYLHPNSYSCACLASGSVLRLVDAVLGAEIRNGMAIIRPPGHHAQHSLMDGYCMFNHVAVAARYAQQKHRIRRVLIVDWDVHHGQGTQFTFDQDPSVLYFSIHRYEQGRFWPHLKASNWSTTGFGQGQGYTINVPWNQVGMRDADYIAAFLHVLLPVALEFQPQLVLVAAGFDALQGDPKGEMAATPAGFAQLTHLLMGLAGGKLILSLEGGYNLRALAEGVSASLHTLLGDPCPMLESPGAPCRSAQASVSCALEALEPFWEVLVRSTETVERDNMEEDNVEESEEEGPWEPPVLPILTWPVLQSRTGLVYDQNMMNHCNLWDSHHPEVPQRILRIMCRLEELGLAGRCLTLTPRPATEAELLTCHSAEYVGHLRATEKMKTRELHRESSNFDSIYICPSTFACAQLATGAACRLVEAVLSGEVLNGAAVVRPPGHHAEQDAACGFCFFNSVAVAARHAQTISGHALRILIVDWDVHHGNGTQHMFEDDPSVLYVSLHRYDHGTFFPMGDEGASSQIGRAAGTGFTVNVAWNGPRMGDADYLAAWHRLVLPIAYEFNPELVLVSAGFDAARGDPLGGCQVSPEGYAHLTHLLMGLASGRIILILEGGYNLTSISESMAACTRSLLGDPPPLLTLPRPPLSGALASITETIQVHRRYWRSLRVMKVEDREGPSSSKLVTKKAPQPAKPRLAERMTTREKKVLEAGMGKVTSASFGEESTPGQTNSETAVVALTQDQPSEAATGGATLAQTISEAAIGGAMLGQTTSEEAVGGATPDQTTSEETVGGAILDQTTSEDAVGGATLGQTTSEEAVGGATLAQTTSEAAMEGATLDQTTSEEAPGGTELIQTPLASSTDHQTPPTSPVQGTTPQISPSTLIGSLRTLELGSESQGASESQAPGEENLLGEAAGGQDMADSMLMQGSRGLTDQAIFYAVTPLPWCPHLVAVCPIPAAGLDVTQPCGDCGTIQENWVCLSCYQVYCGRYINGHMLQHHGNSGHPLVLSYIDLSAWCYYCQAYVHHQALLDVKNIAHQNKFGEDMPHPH
# Method: This assay is used to measure in vivo inhibition of HDAC6 in a cytoblot assay.
# • 1. […] Compounds were added and incubated for 24 hours at 37° C. • 3.
# [6] = tested on: HeLa; assay: Cell proliferation (MTS), HeLa; type: cell-based; conditions: Homo sapiens, 72 hours
# Method: (§2) Measurement of In Vivo Cell Proliferation:
# (§3) Tumor cells were trypsinized and plated into 96-well plates at 3,000 per well and incubated in complete medium with 10% FBS for 24 hours. Compounds were added over a final concentration range of 100 μmol/L to 100 nmol/L in 0.1% DMSO and incubated for 72 hours in complete medium. The effects on proliferation were determined by addition of MTS reagent (Promega) according to the instruction, incubation for 2 hours at 37° C. in CO2 incubator, and record the absorbance at 490 nm using an ELISA plate reader.
# [7] = tested on: A549; assay: Cell proliferation (MTS), A549; type: cell-based; conditions: Homo sapiens, 72 hours
# Method: as §2, §3
# T1 sequence (O15379 whole entry): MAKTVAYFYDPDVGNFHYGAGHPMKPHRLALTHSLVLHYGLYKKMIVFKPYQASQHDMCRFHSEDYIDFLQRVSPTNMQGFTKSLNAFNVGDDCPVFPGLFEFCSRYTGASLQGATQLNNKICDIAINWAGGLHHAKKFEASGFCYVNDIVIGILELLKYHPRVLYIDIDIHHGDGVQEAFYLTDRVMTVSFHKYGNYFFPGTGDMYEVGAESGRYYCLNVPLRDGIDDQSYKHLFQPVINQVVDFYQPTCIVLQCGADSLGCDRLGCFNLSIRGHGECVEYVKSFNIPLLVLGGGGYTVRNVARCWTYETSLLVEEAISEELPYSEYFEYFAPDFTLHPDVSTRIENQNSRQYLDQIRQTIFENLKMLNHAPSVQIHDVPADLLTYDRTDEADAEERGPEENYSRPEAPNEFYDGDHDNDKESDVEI
# T1 sequence (Q9Y618 whole entry partner): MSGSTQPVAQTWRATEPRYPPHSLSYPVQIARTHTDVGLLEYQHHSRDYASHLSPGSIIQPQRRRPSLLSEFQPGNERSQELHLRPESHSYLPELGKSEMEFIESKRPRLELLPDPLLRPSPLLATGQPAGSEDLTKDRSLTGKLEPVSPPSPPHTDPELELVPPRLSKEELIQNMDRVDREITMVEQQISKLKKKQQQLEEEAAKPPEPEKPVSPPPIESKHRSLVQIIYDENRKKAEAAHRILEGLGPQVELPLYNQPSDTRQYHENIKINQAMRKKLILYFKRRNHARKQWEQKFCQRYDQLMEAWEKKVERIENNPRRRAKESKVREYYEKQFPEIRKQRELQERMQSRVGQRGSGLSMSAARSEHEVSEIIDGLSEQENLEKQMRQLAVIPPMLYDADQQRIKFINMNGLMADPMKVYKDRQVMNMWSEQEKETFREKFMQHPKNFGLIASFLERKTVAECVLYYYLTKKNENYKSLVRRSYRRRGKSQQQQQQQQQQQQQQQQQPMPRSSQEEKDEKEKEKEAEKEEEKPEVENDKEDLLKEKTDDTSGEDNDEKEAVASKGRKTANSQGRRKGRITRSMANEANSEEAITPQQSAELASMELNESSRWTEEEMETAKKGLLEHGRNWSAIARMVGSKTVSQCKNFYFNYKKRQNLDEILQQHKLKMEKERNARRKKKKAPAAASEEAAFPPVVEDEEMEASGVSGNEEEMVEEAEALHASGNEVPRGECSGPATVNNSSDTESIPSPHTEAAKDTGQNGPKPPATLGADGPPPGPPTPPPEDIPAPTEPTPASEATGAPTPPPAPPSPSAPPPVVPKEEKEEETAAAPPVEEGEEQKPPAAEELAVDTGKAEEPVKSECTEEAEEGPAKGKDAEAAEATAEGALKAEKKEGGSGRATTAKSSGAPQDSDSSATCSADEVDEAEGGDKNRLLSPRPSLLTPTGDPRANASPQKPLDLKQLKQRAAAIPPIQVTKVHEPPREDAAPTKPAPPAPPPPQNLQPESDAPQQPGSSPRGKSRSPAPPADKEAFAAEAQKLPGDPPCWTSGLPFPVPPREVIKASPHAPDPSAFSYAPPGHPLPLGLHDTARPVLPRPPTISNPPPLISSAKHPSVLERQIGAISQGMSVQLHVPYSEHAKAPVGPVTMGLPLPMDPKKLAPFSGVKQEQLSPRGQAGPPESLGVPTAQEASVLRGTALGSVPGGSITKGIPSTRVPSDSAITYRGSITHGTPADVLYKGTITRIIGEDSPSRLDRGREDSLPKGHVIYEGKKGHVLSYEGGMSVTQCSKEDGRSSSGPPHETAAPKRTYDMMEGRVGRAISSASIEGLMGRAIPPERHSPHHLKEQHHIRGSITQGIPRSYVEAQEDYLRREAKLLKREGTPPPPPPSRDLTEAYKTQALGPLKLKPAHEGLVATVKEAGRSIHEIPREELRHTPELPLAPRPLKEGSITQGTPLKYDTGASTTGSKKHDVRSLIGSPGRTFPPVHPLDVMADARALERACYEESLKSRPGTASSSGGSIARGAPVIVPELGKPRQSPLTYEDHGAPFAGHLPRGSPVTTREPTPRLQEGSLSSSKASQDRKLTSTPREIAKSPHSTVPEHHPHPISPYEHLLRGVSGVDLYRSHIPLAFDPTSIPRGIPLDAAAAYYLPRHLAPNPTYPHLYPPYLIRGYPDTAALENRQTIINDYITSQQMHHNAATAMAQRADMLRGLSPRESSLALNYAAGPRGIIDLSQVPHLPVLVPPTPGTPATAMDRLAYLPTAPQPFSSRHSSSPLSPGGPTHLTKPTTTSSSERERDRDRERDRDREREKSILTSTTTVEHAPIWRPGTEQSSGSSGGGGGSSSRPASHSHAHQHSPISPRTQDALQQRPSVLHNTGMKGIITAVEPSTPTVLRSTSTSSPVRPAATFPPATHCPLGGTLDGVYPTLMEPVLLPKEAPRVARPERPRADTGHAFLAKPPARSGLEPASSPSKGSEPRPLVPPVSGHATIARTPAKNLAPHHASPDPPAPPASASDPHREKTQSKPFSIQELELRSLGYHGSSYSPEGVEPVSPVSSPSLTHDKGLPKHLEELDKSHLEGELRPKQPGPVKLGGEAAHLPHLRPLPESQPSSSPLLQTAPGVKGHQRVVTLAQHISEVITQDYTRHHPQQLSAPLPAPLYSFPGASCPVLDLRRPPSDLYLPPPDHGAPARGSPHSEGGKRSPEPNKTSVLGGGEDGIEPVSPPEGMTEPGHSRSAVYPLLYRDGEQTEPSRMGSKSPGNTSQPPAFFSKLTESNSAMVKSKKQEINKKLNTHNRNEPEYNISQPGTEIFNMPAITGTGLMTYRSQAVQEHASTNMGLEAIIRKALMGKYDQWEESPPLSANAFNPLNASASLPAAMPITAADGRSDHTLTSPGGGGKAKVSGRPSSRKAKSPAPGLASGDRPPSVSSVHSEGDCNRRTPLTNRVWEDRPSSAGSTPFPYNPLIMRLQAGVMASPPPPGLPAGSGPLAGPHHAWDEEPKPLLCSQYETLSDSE
% of Inhibition on total HDAC enzyme at 30 μM [1],activation at 10 µM [3],Fold of tubulin acetylation (HDAC7 at 10 μM) [5],GI50 [6],GI50 [7],SMILES,% of SAHA Response for HDAC Class I at 10 μM (P21 reporter gene) [2],% of SAHA Response for HDAC4/5 at 10 μM (MEF2 reporter gene) [4]
50%,26%,0.79 Fold,22.9 µM,18.2 µM,"Nc1cc(F)ccc1NC(=O)CCCCCNC(=O)C=C1c2ccccc2-c2ccccc21 [Example 12, 6-(2-(9H-fluoren-9-ylidene)acetamido)-N-(2-amino-4-fluorophenyl)hexanamide]",39%,101%
50%,66%,0.74 Fold,8.32 µM,4.9 µM,"Nc1ccccc1NC(=O)CCCCCNC(=O)C=C1c2ccccc2-c2ccccc21 [Example 13, 6-(2-(9H-fluoren-9-ylidene)acetamido)-N-(2-aminophenyl)hexanamide]",133%,118%
